Measured values from ChEMBL document CHEMBL1201862, “PubChem BioAssay data set” (2004).
Activity calls are given as the source filed them.

How the values were obtained:
Nonstructural protein 1 = Nonstructural protein 1 (Influenza A virus, UniProt Q194T2); type: functional, Influenza A virus (A/California/07/2009(H1N1))
[1] = fluconazole-exposed Candida albicans growth modulators – fluorescence, retest, confirmation (AID 2467); type: functional, cell-based
[2] = Trypanosoma cruzi growth suppression in host cells – NIH3T3 host cells, beta-gal luminescence, confirmation (AID 2044); type: functional, cell-based;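 further: intracellular parasites grown in NIH/3T3 mouse fibroblasts as host cells; luminescent beta-galactosidase reporter signal from transgenic T. cruzi replicating inside host cells; inhibitors lower the luminescence signal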
cells [3] = type: functional, cell-based
[4] = NIH3T3 cell viability loss – ATP luminescence, mouse fibroblasts, counter-screen, dose response (AID 2010); type: functional, cell-based;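 further: cells exposed to compound for about 90 hours before reading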
[5] = target: T1, Ubiquitin-conjugating enzyme E2 N (Homo sapiens, UniProt P61088); type: functional;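 further: Dose-response confirmation in a TR-FRET assay detecting UBC13-driven polyubiquitin chain formation, inhibition measured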
T1 sequence (P61088 whole entry): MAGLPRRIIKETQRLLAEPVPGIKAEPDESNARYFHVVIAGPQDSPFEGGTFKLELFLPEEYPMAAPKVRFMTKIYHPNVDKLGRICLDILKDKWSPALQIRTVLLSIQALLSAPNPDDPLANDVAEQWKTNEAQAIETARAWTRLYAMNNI

cells [6] = type: functional, cell-based; remark: listed apart in the source
[7] = NIH-3T3 fibroblast cytotoxicity, dose response, cytotoxicity control, cell-based, fluorescence, Alamar Blue, secondary assay (AID 2327); type: functional;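 further: NIH-3T3 mouse fibroblasts cultured with fluconazole at 8 µg/mL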
[8] = target: T2, Heat shock factor protein 1 (Mus musculus, UniProt P38532); assay: enhancement of HSF1-driven luciferase signal – cell-based, NIH3T3, luminescence, dose retest, confirmation (AID 435004); type: functional;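 further: stress induced by proteasome inhibitor MG132 added 30 min after compound; luciferase reporter driven by HSF1 response element in NIH3T3 cells; actives raise luminescence as potentiators of the MG132 stress response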
T2 sequence (P38532 whole entry): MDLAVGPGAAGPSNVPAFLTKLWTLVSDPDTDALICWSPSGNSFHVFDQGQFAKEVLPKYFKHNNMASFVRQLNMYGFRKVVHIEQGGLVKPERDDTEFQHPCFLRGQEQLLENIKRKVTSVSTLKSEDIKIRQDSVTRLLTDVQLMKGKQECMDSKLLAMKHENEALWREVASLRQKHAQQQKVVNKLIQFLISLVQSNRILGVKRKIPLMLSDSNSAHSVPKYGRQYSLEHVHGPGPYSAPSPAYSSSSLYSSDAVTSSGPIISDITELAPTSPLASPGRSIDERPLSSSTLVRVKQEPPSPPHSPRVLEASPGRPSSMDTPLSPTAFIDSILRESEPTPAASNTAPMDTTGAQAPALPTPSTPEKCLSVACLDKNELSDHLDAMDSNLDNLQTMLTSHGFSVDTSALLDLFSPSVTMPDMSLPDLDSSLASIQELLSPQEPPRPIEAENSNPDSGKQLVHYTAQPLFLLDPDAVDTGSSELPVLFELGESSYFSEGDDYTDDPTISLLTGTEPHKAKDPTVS

Genome polyprotein = Genome polyprotein (dengue virus type 2, UniProt P29990); assay: flavivirus cap methylation enzyme inhibition – biochemical, confirmation dose response, primary screen (AID 588689); type: functional
Sequence of Genome polyprotein (P29990 2492-3391 limits assumed): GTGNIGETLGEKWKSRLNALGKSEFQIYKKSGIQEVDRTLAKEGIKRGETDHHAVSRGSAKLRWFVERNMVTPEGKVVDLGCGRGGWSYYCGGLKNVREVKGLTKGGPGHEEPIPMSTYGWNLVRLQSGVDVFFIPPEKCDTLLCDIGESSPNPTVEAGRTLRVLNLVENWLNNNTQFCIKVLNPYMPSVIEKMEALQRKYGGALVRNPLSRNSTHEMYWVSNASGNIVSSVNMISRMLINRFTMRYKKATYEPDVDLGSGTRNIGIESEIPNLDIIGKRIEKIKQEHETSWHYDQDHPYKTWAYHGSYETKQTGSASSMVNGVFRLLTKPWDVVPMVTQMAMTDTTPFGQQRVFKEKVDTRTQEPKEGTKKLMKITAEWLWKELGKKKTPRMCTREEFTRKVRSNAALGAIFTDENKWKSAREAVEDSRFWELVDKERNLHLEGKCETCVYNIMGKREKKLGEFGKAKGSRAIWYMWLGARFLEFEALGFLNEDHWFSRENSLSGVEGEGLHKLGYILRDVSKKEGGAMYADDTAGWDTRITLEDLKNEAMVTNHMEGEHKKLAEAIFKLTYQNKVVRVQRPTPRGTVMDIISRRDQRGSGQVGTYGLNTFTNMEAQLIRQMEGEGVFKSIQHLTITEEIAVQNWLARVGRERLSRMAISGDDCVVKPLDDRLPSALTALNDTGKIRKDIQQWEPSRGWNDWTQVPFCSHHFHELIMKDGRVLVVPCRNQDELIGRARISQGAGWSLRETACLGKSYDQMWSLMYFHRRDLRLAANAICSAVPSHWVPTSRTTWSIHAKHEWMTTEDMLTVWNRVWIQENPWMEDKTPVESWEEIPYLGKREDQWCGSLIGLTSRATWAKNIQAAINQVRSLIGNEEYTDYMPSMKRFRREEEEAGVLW

[9] = blockers of HIV-1 ZM109 envelope-driven cell-cell fusion – HeLa effector, CEM target cells, luciferase, cherry-pick, dose response (AID 652058); type: functional, cell-based;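 further: luciferase signal from HIV-1 Env mediated cell-cell fusion of effector and target cells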
[10] = off-target signal loss in HeLa-CEM21 co-culture – HeLa F-luc CTL cells, cherry-picked, counter-screen for HIV-1 Env fusion inhibitor project, dose response (AID 652040); type: functional, cell-based;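 further: potency for signal decrease marking cytotoxic or nonspecific inhibition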
[11] = blockers of HIV-1 envelope-mediated cell-cell fusion – cherry-pick, dose response (AID 652057); type: functional, cell-based
[12] = HIV-1 AD8 envelope cell-cell fusion blockers – cherry-pick, dose response (AID 652062); type: functional, cell-based;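 further: luciferase signal from cell-cell fusion driven by HIV-1 clade B AD8 Env; potency is for inhibitors of fusion seen as a drop in luminescence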
Protein skinhead-1 = target: T3, Protein skinhead-1 (Caenorhabditis elegans, UniProt P34707); type: functional
T3 sequence (P34707 whole entry): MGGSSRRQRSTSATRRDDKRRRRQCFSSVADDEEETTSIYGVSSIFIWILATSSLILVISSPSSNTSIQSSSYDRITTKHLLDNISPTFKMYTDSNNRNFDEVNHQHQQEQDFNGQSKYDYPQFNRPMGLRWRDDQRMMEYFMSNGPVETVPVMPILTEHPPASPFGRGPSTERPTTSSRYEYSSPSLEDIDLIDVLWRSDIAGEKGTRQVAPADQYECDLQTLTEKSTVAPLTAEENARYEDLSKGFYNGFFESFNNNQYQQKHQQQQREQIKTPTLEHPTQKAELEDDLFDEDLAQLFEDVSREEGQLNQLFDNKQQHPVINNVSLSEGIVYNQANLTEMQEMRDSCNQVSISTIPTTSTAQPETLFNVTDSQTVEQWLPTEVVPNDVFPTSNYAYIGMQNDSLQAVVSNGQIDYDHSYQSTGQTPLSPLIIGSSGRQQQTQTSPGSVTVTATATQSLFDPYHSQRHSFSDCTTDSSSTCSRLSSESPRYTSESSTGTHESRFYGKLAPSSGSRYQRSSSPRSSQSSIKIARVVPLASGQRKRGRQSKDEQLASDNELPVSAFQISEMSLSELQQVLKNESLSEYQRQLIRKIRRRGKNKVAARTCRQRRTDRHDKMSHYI

[13] = alpha-synuclein stem-loop luciferase translation blockers – H4 neuroglioma cells, luminescence, confirmation (AID 1988); type: functional, cell-based
[14] = Luminescence Cell-Based Dose Response HTS to Identify Inhibitors of 5'UTR Stem-Loop Driven Prion Protein mRNA Translation in H4 Neuroglioblastoma Cells. [Related pubchem assays: 1827 (Project Summary), 1813 (Primary HTS)]; type: functional
[15] = luciferase reporter signal suppression in cells – H4 neuroglioma cells, luminescence, dose response (AID 1990); type: functional, cell-based
Vero = assay: cells; type: functional; settings: Chlorocebus sabaeus
BJ [16] = assay: BJ-TERT-LT-ST fibroblast viability loss – cell-based, RAS-independent, luminescence, dose response (AID 1935); type: functional; settings: Homo sapiens;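 further: BJ fibroblasts immortalized with TERT plus LT and ST oncogenes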
BJ [17] = assay: cells; type: functional, cell-based; settings: Homo sapiens
BJ [18] = assay: BJ-TERT fibroblast viability loss – cell-based, RAS-independent, luminescence, dose response (AID 1933); type: functional; settings: Homo sapiens
[19] = DRD fibroblast viability loss – cell-based, non-viral oncogenic, luminescence, dose response (AID 1934); type: functional; settings: Homo sapiens
[20] = target: T4, Polyadenylate-binding protein 1 (Homo sapiens, UniProt P11940); assay: MLLE binding blockers, Cy5 peptide tracer – biochemical, fluorescence polarization, Cy5-PAM2 peptide, secondary, miRNA deadenylation inhibitor project, dose response (AID 602260); type: functional; settings: read-out: IC50_Mean
T4 sequence (P11940 whole entry, the tested form may be a part): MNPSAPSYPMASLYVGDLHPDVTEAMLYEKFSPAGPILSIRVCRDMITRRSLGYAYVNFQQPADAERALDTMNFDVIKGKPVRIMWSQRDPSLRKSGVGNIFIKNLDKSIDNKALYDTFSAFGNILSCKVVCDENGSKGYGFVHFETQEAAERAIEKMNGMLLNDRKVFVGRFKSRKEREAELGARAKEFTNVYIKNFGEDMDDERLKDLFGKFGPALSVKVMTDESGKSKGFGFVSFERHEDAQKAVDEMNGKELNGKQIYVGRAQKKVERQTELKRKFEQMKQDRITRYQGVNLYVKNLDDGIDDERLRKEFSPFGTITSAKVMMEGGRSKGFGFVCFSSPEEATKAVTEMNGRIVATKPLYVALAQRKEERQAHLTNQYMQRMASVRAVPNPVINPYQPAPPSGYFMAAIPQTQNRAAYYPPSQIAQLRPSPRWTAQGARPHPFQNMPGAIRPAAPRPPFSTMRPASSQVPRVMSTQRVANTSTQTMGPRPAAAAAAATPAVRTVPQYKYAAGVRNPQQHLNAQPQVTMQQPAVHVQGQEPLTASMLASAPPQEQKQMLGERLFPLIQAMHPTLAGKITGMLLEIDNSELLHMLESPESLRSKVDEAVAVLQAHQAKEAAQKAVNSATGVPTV

[21] = target: T4, Polyadenylate-binding protein 1; assay: MLLE domain peptide-binding blockers, IC50 – biochemical, fluorescence polarization, FITC-PAM2 peptide, dose response (AID 602259); type: functional; settings: read-out: IC50_Mean

Sequence of Nonstructural protein 1 (Q194T2 whole entry): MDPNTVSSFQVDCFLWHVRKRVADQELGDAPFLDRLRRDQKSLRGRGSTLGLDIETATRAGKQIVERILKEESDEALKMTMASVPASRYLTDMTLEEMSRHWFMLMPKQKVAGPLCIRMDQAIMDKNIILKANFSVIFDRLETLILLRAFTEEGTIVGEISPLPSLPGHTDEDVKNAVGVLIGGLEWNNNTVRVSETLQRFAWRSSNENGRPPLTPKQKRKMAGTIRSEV

O=C1c2ccccc2C(=O)c2c1cccc2N1CCN(Cc2ccccc2)CC1
IC50 (Nonstructural protein 1): 7.08 µM (active)

Oc1ccc(CN2CCN(Cc3ccccc3)CC2)c2cccnc12
EC50 [1]: > 38 µM (not active) | EC50 [2]: 2.03 µM (active) | EC50 (cells [3]): > 350 µM (not active) | IC50 (Nonstructural protein 1): 11.2 µM (active) | EC50 [4]: > 60 µM (not active) | IC50 [5]: > 20 µM (inactive) | EC50 (cells [6]): > 350 µM (not active) | EC50 [7]: > 160 µM (inconclusive)

Oc1cccc2c(-c3nn[nH]n3)ccnc12
IC50 (Nonstructural protein 1): 7.24 µM (active)

CCC1(C)NC(=O)N(CC(=O)N2CCC(Cc3ccccc3)CC2)C1=O (stereo unspecified)
IC50 [5]: > 20 µM (inactive)

Cc1cc2ccccn2c1C(=O)c1cc([N+](=O)[O-])cc([N+](=O)[O-])c1
IC50 (Nonstructural protein 1): 40.7 µM (active)

O=C(O)c1cc([N+](=O)[O-])c(NCCC2=CCCCC2)c([N+](=O)[O-])c1
EC50 [8]: > 260 µM (inactive) | IC50 (Genome polyprotein): 72.8 µM (active)

Cc1ccc(OCCCCNC(C)c2ccccc2)c(C)c1 (stereo unspecified)
AC50 [9]: 5.29 µM (active) | AC50 [10]: 2.94 µM (active) | AC50 [11]: 3.69 µM (active) | AC50 [12]: 5.36 µM (active)

O=C(COC(=O)c1cccc(S(=O)(=O)N2CCOCC2)c1)Nc1ncc(C(F)(F)F)cc1Cl
IC50 (Protein skinhead-1): > 100 µM (inactive) | EC50 (cells [3]): > 350 µM (not active) | EC50 (cells [6]): > 350 µM (not active)

O=C(NCc1ccco1)c1ccc(Cn2c(=O)c3ccccc3n(Cc3cccc(Cl)c3)c2=O)cc1
EC50 [13]: 16.5 µM (active) | EC50 [14]: > 120 µM (not active) | AC50 [9]: 2.76 µM (active) | EC50 [15]: 11.8 µM (active) | AC50 [10]: 1.78 µM (active) | AC50 [11]: 1.83 µM (active) | AC50 [12]: 1.34 µM (active)

CCOC(=O)N1CCN(C(=O)CCN2C(=O)/C(=C\c3ccccc3OC)SC2=S)CC1
CC50 (Vero): > 25 µM (active)

COc1ccc(-n2c(SCC(=O)c3c(N)n(C)c(=O)n(C)c3=O)nc3ccccc32)cc1
EC50 (BJ [16]): > 150 µM (inconclusive) | EC50 (BJ [17]): > 150 µM (not active) | EC50 (BJ [18]): > 150 µM (not active) | EC50 [19]: > 150 µM (not active)

O=C(CSc1nc(O)c(Cc2ccccc2)c(O)n1)Nc1nnc(SCc2ccccc2)s1
IC50 [20]: > 66 µM (inactive) | IC50 [21]: > 66 µM (inactive) | IC50 (Genome polyprotein): 43.3 µM (active)
